Measurements from patent US8106051B2, “Utilities of amide compounds” (Shionogi & Co., Ltd., priority 2001, dated 2012).

Assays:
[1] = tested on: promoter region of the gene encoding human apoAI; assay: Activity to enhance the expression of human apoAI (apoAI promoter-luciferase reporter in HepG2 cells); format: cell-based; details: HepG2 cells stably expressing human apoAI promoter-firefly luciferase reporter; 24 hours incubation; 0 to 10 μg/mL; control DMSO
Protocol: The promoter region of the gene encoding human apoAI was isolated, and ligated upstream the structure gene of firefly luciferase to construct a reporter plasmid. The reporter plasmid and a marker plasmid conferring the neomycin resistance were co-infected to cell lines derived from human hepatoma, HepG2 cells, and the cell lines were incubated in a selection medium comprising DMEM medium containing 10% fetal calf serum supplemented with G418 (Final concentration: 0.7 mg/mL, Gibco) to give established strains that stably expressed the reporter molecule. The strains were seeded to a 96-well culture plates at a density of 50,000 cells per well, and incubated for 48 hours at 37° C. under an atmosphere of 5% carbon dioxide. Then, a solution of the compounds according to the invention in DMSO was added to the wells at final concentrations of 0 to 10 μg/mL. After further incubation for 24 hours, the cells were added with a luciferase assay reagent (Piccagene LT 7.5 registered trade mark, Toyo Ink, KK), and the luciferase activity was determined using a luminometer (MicroBeta™ TRILUX, 1 sec/well, Wallac). The concentration of the compounds, which intensified the luciferase activity twice compared to that of control (DMSO without any compound of the invention added) was set as the minimal effective dose (MED).

Molecule `O=C(C=Cc1ccccc1)Nc1cnc2ccccc2n1` [Ia-9, 3-Phenyl-N-quinoxalin-2-yl-acrylamide] has a melting point of 177 to 178 °C.

With `Cc1ccc(NC(=O)c2ccc(Cl)cc2)cc1` [Ib-17, 4-Chloro-N-(4-tolyl)benzamide] the “MED (minimal effective dose): concentration which intensified the luciferase activity twice compared to that of control” value [1] was 0.30 µg/mL.
